Results on 22 compounds are retold here after patent US8883782B2, “Spiro-tetracyclic ring compounds as beta-secretase modulators and methods of use” (Amgen Inc., priority 2010, dated 2014).

Like-named read-outs stand apart in the source and are kept apart here.

The subject of assay [1] is Aβ40 in conditioned medium of cells stably expressing Amyloid Precursor Protein (APP). The experiment in a line: In vitro BACE cell-based assay (Aβ40 in conditioned medium, sandwich ELISA). Summed up:
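Secreted Aβ40 is captured with pAb40 and detected with biotinylated 6E10, read by europium time-resolved fluorescence. IC50 comes from percent inhibition versus concentration.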

For assay [2], the system named is Abeta 40 in cerebrospinal fluid (CSF) and brain. As to the kind of experiment: In vivo inhibition of beta-secretase (Abeta 40 reduction in CSF and brain). The note with it: rat, after 4 hrs; for inhibition in vivo at 10 mg/kg: Abeta 40, 10 mg/kg (10 mpk); for inhibition in vivo at 3 mg/kg: Abeta 40, 3 mpk. From the text: In Vivo Inhibition of Beta-Secretase
Several animal models, including mouse, rat, dog, and monkey, may be used to screen for inhibition of beta-secretase activity in vivo following administration of a test compound sample. Animals used in this invention can be wild type, transgenic, or gene knockout animals. […] A separate group of animals receive 2% hydroxypropyl methylcellulose, 1% Tween80 alone, containing no test compound, and serve as a vehicle-control group. At the end of the test period, animals are sacrificed and brain tissues, plasma or cerebrospinal fluid are collected. […] Homogenates are centrifuged at 355,000 g, 4° C. for 30 minutes. CSF or brain supernatants are then analyzed for the presence of A-beta peptide by specific sandwich ELISA assays based on ECL (Electrochemiluminescence) technology. For example, rat Abeta40 is measured using biotinylated-4G8 (Signet) as a capture antibody and Fab40 (an in-house antibody specific to the C-terminal of Abeta40) as a detection antibody.
Actual vehicles used: Oral: 2% HPMC, 1% Tween80, pH 2.2

Assay [3] addresses Beta Secretase enzyme (BACE) (Homo sapiens, UniProt P56817). As to the kind of experiment: In vitro enzymatic BACE FRET (fluorescence resonance energy transfer) assay. Format: biochemical. Summed up:
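Run in 0.05 M acetate pH 4.2 with 10% DMSO final and 100 uM genapol; started by adding 50 nM FRET peptide substrate (fluorophore and quencher flanking the cleavage site), incubated one hour, then stopped with Tris to neutral pH before reading fluorescence.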

Setting [4] is: Homo sapiens, HEK293, average IC50, read-out: HEK cell assay.
The mark [5] stands for this setting: CSF, read-out: CSF A-beta reduction % at 10 mg/kg.
The mark [6] stands for this setting: brain, read-out: Brain A-beta reduction % at 10 mg/kg.
Setting [7] is: average IC50, enzyme assay, read-out: BACE 1 FRET assay.
[8] abbreviates: Homo sapiens, HEK293, average IC50, HEK cells, read-out: HEK cell assay.

Chain of Beta Secretase enzyme (BACE) (P56817 46-501, species assumed): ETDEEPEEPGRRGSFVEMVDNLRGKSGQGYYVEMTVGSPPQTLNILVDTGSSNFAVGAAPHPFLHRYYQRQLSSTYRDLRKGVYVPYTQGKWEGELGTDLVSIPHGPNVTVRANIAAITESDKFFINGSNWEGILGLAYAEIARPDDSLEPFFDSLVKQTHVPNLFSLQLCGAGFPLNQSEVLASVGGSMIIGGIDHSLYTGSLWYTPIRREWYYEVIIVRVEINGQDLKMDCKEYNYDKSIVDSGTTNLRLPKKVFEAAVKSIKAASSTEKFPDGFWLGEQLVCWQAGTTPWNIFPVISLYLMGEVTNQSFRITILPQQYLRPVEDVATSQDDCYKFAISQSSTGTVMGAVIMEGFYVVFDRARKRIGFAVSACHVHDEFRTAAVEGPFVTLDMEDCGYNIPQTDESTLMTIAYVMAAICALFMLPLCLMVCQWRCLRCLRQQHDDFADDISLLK

For the compound `NC1=N[C@@]2(CS1)c1cc(-c3cccnc3F)ccc1Oc1c(F)cc(N3CCC(F)(F)C3)cc12` [Example 1077, (S)-2′-(3,3-difluoropyrrolidin-1-yl)-4′-fluoro-7′-(2-fluoropyridin-3-yl)-5H-spiro[thiazole-4,9′-xanthen]-2-amine], the IC50 turned out to be 0.009 µM in assay [1] (setting [4]) and 0.0003 µM in assay [3] (setting [7]). For the same compound, the inhibition in vivo at 10 mg/kg in assay [2] (setting [5]) is 69%; in assay [2] (setting [6]), 53%.
Take `NC1=N[C@@]2(CO1)c1cc(-c3c(F)ccnc3F)ccc1Oc1cnc(C3=CCOCC3)cc12` [Example 89, (5S)-7-(2,4-difluoro-3-pyridinyl)-3-(3,6-dihydro-2H-pyran-4-yl)spiro[chromeno[2,3-c]pyridine-5,4′-[1,3]oxazol]-2′-amine]: the IC50 in assay [1] (Homo sapiens, HEK293, read-out: HEK cell assay (uM), average IC50, HEK cell assay) is 0.0047 µM; in assay [3] (BACE 1 FRET assay (uM)), 0.0007 µM. Moreover, the inhibition in vivo at 10 mg/kg in assay [2] (setting [5]) worked out at 80%; in assay [2] (setting [6]) it was 69%.
Regarding `NC1=N[C@@]2(CO1)c1cc(-c3cccnc3F)ccc1Oc1c2cc(C2=CCCOC2)nc1F` [Example 688, (5S)-3-(5,6-dihydro-2H-pyran-3-yl)-1-fluoro-7-(2-fluoro-3-pyridinyl)spiro[chromeno[2,3-c]pyridine-5,4′-[1,3]oxazol]-2′-amine], the IC50 in assay [1] (setting [8]) was 0.005 µM. For the same compound, the inhibition in vivo at 3 mg/kg in assay [2] (CSF, read-out: CSF A-beta reduction % at 3 mpk) amounted to 74%; in assay [2] (brain, read-out: Brain A-beta reduction % at 3 mpk) it was 75%.
On to `NC1=N[C@@]2(CS1)c1cc(-c3cccnc3F)ccc1Oc1cnc(-c3ccnc(F)c3)cc12` [Example 1000, (S)-7-(2-fluoropyridin-3-yl)-3-(2-fluoropyridin-4-yl)-5′H-spiro[chromeno[2,3-c]pyridine-5,4′-thiazol]-2′-amine], for which the IC50 in assay [1] (setting [4]) came out at 0.023 µM. Besides, the “CSF A-beta reduction % at 30 mpk” value in assay [2] (CSF, Abeta 40, 30 mpk) turned out to be 63% at 30 mpk. Moreover, the “Brain A-beta reduction % at 30 mpk” value in assay [2] (brain, Abeta 40, 30 mpk) is reported as 60% at 30 mpk.
Consider `CC(C)(C)C#Cc1cnc2c(c1)[C@]1(COC(N)=N1)c1cc(-c3cncnc3)c(F)cc1O2` [Example 339, (S)-3-(3,3-dimethylbut-1-yn-1-yl)-8-fluoro-7-(pyrimidin-5-yl)-5′H-spiro[chromeno[2,3-b]pyridine-5,4′-oxazol]-2′-amine], for which the IC50 in assay [1] (average IC50, read-out: HEK cell assay) is 0.0144 µM. Also, the results for the inhibition in vivo at 10 mg/kg in assay [2] (setting [5]) and in assay [2] (setting [6]) were 56% and 29%, respectively.
Take `CC1(C#Cc2cc3c(cn2)Oc2ccc(-c4cc(Cl)cnc4F)cc2[C@@]32COC(N)=N2)COC1` [Example 158, (5S)-7-(5-chloro-2-fluoro-3-pyridinyl)-3-((3-methyl-3-oxetanyl)ethynyl)spiro[chromeno[2,3-c]pyridine-5,4′-[1,3]oxazol]-2′-amine]: the IC50 in assay [1] (setting [4]) was found to be 0.0116 µM; in assay [3] (setting [7]), 0.001 µM.
With `CC1(C)CN(c2cnc3c(c2)[C@]2(COC(N)=N2)c2cc(C#CC4CC4)ccc2O3)CCO1` [Example 179, (5S)-7-(cyclopropylethynyl)-3-(2,2-dimethyl-4-morpholinyl)spiro[chromeno[2,3-b]pyridine-5,4′-[1,3]oxazol]-2′-amine], the results for the IC50 in assay [1] (setting [4]) and in assay [3] (setting [7]) were 0.0641 µM and 0.0111 µM, respectively.
On to `CC1(C)C[C@@H](c2cc3c(cn2)Oc2ccc(-c4cncc(F)c4)cc2[C@@]32COC(N)=N2)CCO1` [Example 380, (5S)-3-((4S)-2,2-dimethyltetrahydro-2H-pyran-4-yl)-7-(5-fluoro-3-pyridinyl)spiro[chromeno[2,3-c]pyridine-5,4′-[1,3]oxazol]-2′-amine], for which the IC50 was 0.101 µM in assay [1] (setting [4]) and 0.0302 µM in assay [3] (setting [7]).
For the compound `NC1=N[C@@]2(CO1)c1cc(-c3cccnc3)c(F)cc1Oc1c(F)cc(C3CCOCC3)cc12` [Example 864, (4S)-3′,5′-difluoro-2′-(3-pyridinyl)-7′-(tetrahydro-2H-pyran-4-yl)spiro[1,3-oxazole-4,9′-xanthen]-2-amine], the IC50 in assay [1] (setting [8]) was determined as 0.03 µM; in assay [3] (setting [7]), 0.0011 µM.
With `CC1(C#Cc2cnc3c(c2)[C@]2(CSC(N)=N2)c2cc(-c4ccc(F)c(C#N)c4)ccc2O3)COC1` [Example 785, 5-((5S)-2′-amino-3-((3-methyl-3-oxetanyl)ethynyl)spiro[chromeno[2,3-b]pyridine-5,4′-[1,3]thiazol]-7-yl)-2-fluorobenzonitrile], the IC50 in assay [1] (setting [4]) worked out at 0.013 µM; in assay [3] (setting [7]), 0.0016 µM.
On to `NC1=N[C@@]2(CO1)c1cc(OCc3cccc(F)c3)ccc1Oc1ncc(-c3cccnc3)cc12` [Example 982, (5S)-7-((3-fluorobenzyl)oxy)-3-(3-pyridinyl)spiro[chromeno[2,3-b]pyridine-5,4′-[1,3]oxazol]-2′-amine], for which the IC50 in assay [1] (setting [4]) amounted to 0.644 µM; in assay [3] (setting [7]), 0.0668 µM.
For `COc1nc(Cl)cc2c1Oc1ccc(-c3cccnc3F)cc1[C@@]21COC(N)=N1` [Example 828, (5S)-3-chloro-7-(2-fluoro-3-pyridinyl)-1-methoxyspiro[chromeno[2,3-c]pyridine-5,4′-[1,3]oxazol]-2′-amine] the same measures were at least 10 µM and 0.134 µM.
For `NC1=N[C@@]2(CO1)c1cc(-c3cncnc3)ccc1Oc1cnc(N3CCC(F)(F)C3)cc12` [Example 540, (5S)-3-(3,3-difluoro-1-pyrrolidinyl)-7-(5-pyrimidinyl)spiro[chromeno[2,3-c]pyridine-5,4′-[1,3]oxazol]-2′-amine], the IC50 in assay [1] (setting [8]) came to 0.0072 µM; in assay [3] (setting [7]), 0.0008 µM.
For `CC(C)(O)C#Cc1cc(F)c2c(c1)[C@]1(COC(N)=N1)c1cc(-c3cccnc3F)ccc1O2` [Example 199, 4-((4S)-2-amino-4′-fluoro-7′-(2-fluoro-3-pyridinyl)spiro[1,3-oxazole-4,9′-xanthen]-2′-yl)-2-methyl-3-butyn-2-ol], the IC50 stood at 0.0051 µM in assay [1] (setting [4]) and 0.0008 µM in assay [3] (setting [7]).
Regarding `NC1=N[C@@]2(CO1)c1cc(-c3cccc(Cl)c3)ccc1Oc1cnc(-c3cccc(Cl)c3)cc12` [Example 527, (5S)-3,7-bis(3-chlorophenyl)spiro[chromeno[2,3-c]pyridine-5,4′-[1,3]oxazol]-2′-amine], the IC50 stood at 0.612 µM in assay [1] (setting [8]) and 0.0015 µM in assay [3] (setting [7]).
For `Cc1ncncc1-c1ccc2c(c1)[C@@]1(COC(N)=N1)c1cc(C3=CCOCC3)ncc1O2` [Example 808, (5S)-3-(3,6-dihydro-2H-pyran-4-yl)-7-(4-methyl-5-pyrimidinyl)spiro[chromeno[2,3-c]pyridine-5,4′-[1,3]oxazol]-2′-amine], the IC50 is 0.093 µM in assay [1] (setting [4]) and 0.003 µM in assay [3] (setting [7]).
Turning to `NC1=N[C@@]2(CS1)c1cc(-c3cccnc3F)ccc1Oc1c(F)cc(N3C[C@H]4C[C@@H]3CO4)cc12` [Example 1085, (4S)-4′-fluoro-7′-(2-fluoro-3-pyridinyl)-2′-((1R,4R)-2-oxa-5-azabicyclo[2.2.1]hept-5-yl)spiro[1,3-thiazole-4,9′-xanthen]-2-amine], the IC50 in assay [1] (setting [4]) amounted to 0.023 µM; in assay [3] (setting [7]), 0.0003 µM.
Regarding `NC1=N[C@@]2(CO1)c1cc(-c3cncc(F)c3)ccc1Oc1cnc(N3CCC(F)(F)C3)cc12` [Example 413, (5S)-3-(3,3-difluoro-1-pyrrolidinyl)-7-(5-fluoro-3-pyridinyl)spiro[chromeno[2,3-c]pyridine-5,4′-[1,3]oxazol]-2′-amine], the IC50 is 0.0056 µM in assay [1] (setting [8]) and 0.0008 µM in assay [3] (setting [7]).
Take `COc1ccc(OC)c(-c2ccc3c(c2)[C@@]2(COC(N)=N2)c2cc(C4=CCOCC4)cnc2O3)c1` [Example 502, (5S)-3-(3,6-dihydro-2H-pyran-4-yl)-7-(2,5-dimethoxyphenyl)spiro[chromeno[2,3-b]pyridine-5,4′-[1,3]oxazol]-2′-amine]: the IC50 in assay [1] (setting [8]) was found to be 0.0127 µM; in assay [3] (setting [7]), 0.0025 µM.
Taken in the same sequence, the figures for `NC1=N[C@]2(CO1)c1cc(Br)ccc1Oc1c(F)cc(Cl)nc12` [Example 489, (10R)-8-bromo-2-chloro-4-fluorospiro[chromeno[3,2-b]pyridine-10,4′-[1,3]oxazol]-2′-amine] were 10 µM and 8.12 µM.
Take `NC1=N[C@@]2(CO1)c1cc(-c3cncc(C#CC4CC4)c3)ccc1Oc1cnc(-c3ccnc(F)c3)cc12` [Example 815, (5S)-7-(5-(cyclopropylethynyl)-3-pyridinyl)-3-(2-fluoro-4-pyridinyl)spiro[chromeno[2,3-c]pyridine-5,4′-[1,3]oxazol]-2′-amine]: the IC50 was found to be 0.699 µM in assay [1] (setting [4]) and 0.0019 µM in assay [3] (setting [7]).
For `COC[C@H]1SC(N)=NC12c1cc(-c3cccnc3F)ccc1Oc1cnc(-c3ccnc(F)c3)cc12` (single isomer, unassigned) [Example 1093, (4′S/R,5′S)-7-(2-fluoropyridin-3-yl)-3-(2-fluoropyridin-4-yl)-5′-(methoxymethyl)-5′H-spiro[chromeno[2,3-c]pyridine-5,4′-thiazol]-2′-amine], the values for the IC50 in assay [1] (read-out: HEK cell assay) and in assay [3] (setting [7]) were 0.495 µM and 0.0057 µM, respectively.
